Source: patent publication US20260217711A1, “TRIAZOLOPYRIDINYL ETHER LINKED COMPOUNDS AS KINASE INHIBITORS” (Bristol-Myers Squibb Company, priority 2023, published 2026)
Like-named read-outs stand apart in the source and are kept apart here.

Legend:
[1] = molecular target: T1, mouse Breast Cancer Resistance Protein (mBcrp) (Mus musculus, UniProt Q7TMS5); assay: Transporter assay, bi-directional transport, MDCK-mBcrp cells; type: in vitro ADME; details: basolateral to apical / apical to basolateral, >2 = substrate; for efflux ratio at 2 h, 0.1 uM: mouse, read-out: BCRP (efflux ratio); for BCRP (efflux ratio): 0.1 uM, 2 hours
T1 construct: host or cells: MDCK (MDCK-mBcrp)
T1 sequence (Q7TMS5 1-657): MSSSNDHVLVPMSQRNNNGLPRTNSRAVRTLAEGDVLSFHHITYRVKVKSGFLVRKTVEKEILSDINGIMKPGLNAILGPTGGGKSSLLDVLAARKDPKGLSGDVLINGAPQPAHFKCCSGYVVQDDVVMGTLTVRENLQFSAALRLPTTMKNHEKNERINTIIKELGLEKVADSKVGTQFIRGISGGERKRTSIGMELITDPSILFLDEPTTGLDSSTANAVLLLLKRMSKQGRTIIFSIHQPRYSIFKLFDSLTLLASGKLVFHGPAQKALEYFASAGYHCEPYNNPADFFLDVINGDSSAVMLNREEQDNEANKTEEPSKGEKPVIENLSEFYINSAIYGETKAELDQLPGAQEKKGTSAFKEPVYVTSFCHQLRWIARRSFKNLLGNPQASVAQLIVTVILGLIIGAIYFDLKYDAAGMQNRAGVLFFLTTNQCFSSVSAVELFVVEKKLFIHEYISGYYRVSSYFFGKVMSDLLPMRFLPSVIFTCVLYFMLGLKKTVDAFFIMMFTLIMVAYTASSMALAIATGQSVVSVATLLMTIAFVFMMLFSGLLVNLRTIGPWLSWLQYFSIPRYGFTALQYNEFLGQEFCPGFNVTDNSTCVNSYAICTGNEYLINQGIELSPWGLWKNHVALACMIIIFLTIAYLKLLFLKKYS
Description: (§1) Compounds were assessed as substrates of MDR1 P-glycoprotein (P-gp) and mouse Breast Cancer Resistance Protein (mBcrp) at 0.1 uM, for 2 hours, in bi-directional transport assays using recombinant MDCK cell lines as described previously (Feng et al. Drug Metabolism and Disposition 2008, Vol. 36:268-275). MDCK-MDR1 and MDCK-mBcrp cells were acquired from the National Institutes of Health (Bethesda, MID) and the Netherlands Cancer Institute respectively, and used under license agreement. Data are expressed as efflux ratios, where transport across the cell monolayer in the basolateral to apical direction is divided by transport in the apical to basolateral direction. Efflux ratios >2 indicate the test compound is a substrate of the transporter tested.

[2] = molecular target: T2, MDR1 P-glycoprotein (P-gp) (Homo sapiens, UniProt P08183); assay: Transporter assay, bi-directional transport, MDCK-MDR1 cells; type: in vitro ADME; details: basolateral to apical / apical to basolateral, >2 = substrate; for efflux ratio at 2 h, 0.1 uM: human, MDCK-MDR1, 0.1 uM, read-out: PGP (efflux ratio); for PGP (efflux ratio): 0.1 uM, 2 hours
T2 construct: host or cells: MDCK (MDCK-MDR1)
T2 sequence (P08183 whole entry): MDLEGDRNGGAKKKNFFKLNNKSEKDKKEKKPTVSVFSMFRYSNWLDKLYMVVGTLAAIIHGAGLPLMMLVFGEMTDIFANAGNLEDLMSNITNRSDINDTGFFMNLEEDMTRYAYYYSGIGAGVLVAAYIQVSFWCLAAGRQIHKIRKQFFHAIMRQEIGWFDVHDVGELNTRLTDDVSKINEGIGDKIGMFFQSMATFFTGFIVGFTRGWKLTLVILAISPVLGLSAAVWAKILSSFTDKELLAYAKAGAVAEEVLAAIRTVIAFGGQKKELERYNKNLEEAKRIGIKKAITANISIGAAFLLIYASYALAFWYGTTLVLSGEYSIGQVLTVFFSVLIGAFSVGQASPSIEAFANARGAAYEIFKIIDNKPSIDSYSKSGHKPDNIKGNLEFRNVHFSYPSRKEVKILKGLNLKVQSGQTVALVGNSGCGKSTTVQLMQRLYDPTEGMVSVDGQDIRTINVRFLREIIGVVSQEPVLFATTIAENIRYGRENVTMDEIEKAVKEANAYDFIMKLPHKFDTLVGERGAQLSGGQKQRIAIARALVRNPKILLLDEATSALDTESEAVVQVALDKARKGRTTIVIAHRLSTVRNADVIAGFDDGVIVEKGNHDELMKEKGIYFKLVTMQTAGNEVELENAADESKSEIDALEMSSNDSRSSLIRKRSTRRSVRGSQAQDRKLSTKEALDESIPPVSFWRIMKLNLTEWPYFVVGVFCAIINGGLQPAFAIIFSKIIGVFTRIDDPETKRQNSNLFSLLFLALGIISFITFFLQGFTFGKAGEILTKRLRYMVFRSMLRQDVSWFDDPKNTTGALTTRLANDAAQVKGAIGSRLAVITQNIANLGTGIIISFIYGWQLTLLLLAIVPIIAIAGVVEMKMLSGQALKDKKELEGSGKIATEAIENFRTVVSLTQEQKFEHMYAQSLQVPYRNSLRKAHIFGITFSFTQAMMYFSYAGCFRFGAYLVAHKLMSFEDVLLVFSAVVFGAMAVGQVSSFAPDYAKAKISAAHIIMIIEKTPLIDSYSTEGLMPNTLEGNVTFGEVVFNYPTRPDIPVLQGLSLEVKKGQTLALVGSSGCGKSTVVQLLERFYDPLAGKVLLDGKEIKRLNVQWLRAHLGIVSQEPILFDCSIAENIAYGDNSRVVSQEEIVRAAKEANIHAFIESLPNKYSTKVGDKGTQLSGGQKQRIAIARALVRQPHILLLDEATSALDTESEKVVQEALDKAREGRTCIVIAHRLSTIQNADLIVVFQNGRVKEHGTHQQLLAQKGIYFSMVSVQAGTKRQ
Description: as §1

[3] = tested on: MLKL phosphorylation (pMLKL) in HT29-L23 cells; assay: MLKL Phosphorylation High-Content Assay; type: cell-based; details: necroptosis induced with human TNFα, SMAC mimetic and Z-VAD, 6 h, read-out: LE pMLKL HC IC50
How it was run: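 HT29-L23 cells incubated 6 h at 37° C before detection of phospho-MLKL by immunostaining with anti-phospho-MLKL antibody (1:1000 in PBS/0.1% BSA, overnight at 4° C). Readout by high-content imaging with compartmental image analysis.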

Row | Compound | IC50 [3] [nM] | also measured
1 | CC(O)(c1ccc(F)cc1)C(F)(F)CCOc1cccc(-c2ccn3nc(N)nc3c2)c1F (single isomer, unassigned) [Example 2, 5-(3-(2-amino-[1,2,4]triazolo[1,5-a]pyridin-7-yl)-2-fluorophenoxy)-3,3-difluoro-2-(4-fluorophenyl)pentan-2-ol] | 4 | efflux ratio at 2 h, 0.1 uM [1]: 6.2; efflux ratio at 2 h, 0.1 uM [2]: 1.8
2 | CC(O)(c1ccc(F)cc1)C(F)(F)CCOc1cccc(-c2ccn3nc(N)nc3c2)c1F (single isomer, unassigned) [Example 3, 5-(3-(2-amino-[1,2,4]triazolo[1,5-a]pyridin-7-yl)-2-fluorophenoxy)-3,3-difluoro-2-(4-fluorophenyl)pentan-2-ol] | 0.1 | BCRP (efflux ratio) [1]: 3.4; PGP (efflux ratio) [2]: 1.2
3 | CC(O)(c1ccc(F)cc1)C(F)(F)CCOc1c(Cl)ccc(-c2ccn3nc(N)nc3c2)c1F (single isomer, unassigned) [Example 4, 5-(3-(2-amino-[1,2,4]triazolo[1,5-a]pyridin-7-yl)-6-chloro-2-fluorophenoxy)-3,3-difluoro-2-(4-fluorophenyl)pentan-2-ol] | 0.5 | BCRP (efflux ratio) [1]: 1.7; PGP (efflux ratio) [2]: 1.5
4 | [2H]C([2H])(CC(F)(F)C(C)(O)c1ccc(F)cc1)Oc1cccc(-c2ccn3nc(N)nc3c2)c1F (single isomer, unassigned) [Example 13, 5-(3-(2-amino-[1,2,4]triazolo[1,5-a]pyridin-7-yl)-2-fluorophenoxy)-3,3-difluoro-2-(4-fluorophenyl)pentan-5,5-d2-2-ol] | 0.1 | efflux ratio at 2 h, 0.1 uM [1]: 3.9; efflux ratio at 2 h, 0.1 uM [2]: 1.8
5 | [2H]C([2H])(CC(F)(F)C(C)(O)c1ccc(F)cc1)Oc1c(F)ccc(-c2ccn3nc(N)nc3c2)c1F (single isomer, unassigned) [Example 15, 5-(3-(2-amino-[1,2,4]triazolo[1,5-a]pyridin-7-yl)-2,6-difluorophenoxy)-3,3-difluoro-2-(4-fluorophenyl)pentan-5,5-d2-2-ol] | 0.3 | efflux ratio at 2 h, 0.1 uM [1]: 2.9; efflux ratio at 2 h, 0.1 uM [2]: 1.4
6 | Nc1nc2cc(-c3cc(F)c(F)c(OCCC(F)C(O)c4ccc(F)cc4)c3)ccn2n1 (single isomer, unassigned) [Example 119, 4-(5-(2-amino-[1,2,4]triazolo[1,5-a]pyridin-7-yl)-2,3-difluorophenoxy)-2-fluoro-1-(4-fluorophenyl)butan-1-ol] | 580 | 
7 | Cc1ccc(-c2ccn3nc(N)nc3c2)c(F)c1OCCC(F)C(F)(F)c1ccc(F)cc1 (single isomer, unassigned) [Example 120, 7-(2-fluoro-4-methyl-3-(3,4,4-trifluoro-4-(4-fluorophenyl)butoxy)phenyl)-[1,2,4]triazolo[1,5-a]pyridin-2-amine] | 9.6 | 
8 | Cc1ccc(-c2ccn3nc(N)nc3c2)c(F)c1OCCC(F)C(F)(F)c1ccc(F)cc1 (single isomer, unassigned) [Example 121, 7-(2-fluoro-4-methyl-3-(3,4,4-trifluoro-4-(4-fluorophenyl)butoxy)phenyl)-[1,2,4]triazolo[1,5-a]pyridin-2-amine] | 89 | 
9 | CC(O)(c1cccc(F)c1)C(F)(F)CCOc1c(F)ccc(-c2ccn3nc(N)nc3c2)c1F (single isomer, unassigned) [Example 122, 5-(3-(2-amino-[1,2,4]triazolo[1,5-a]pyridin-7-yl)-2,6-difluorophenoxy)-3,3-difluoro-2-(3-fluorophenyl)pentan-2-ol] | 130 | 
10 | CC(O)(c1cccc(F)c1)C(F)(F)CCOc1c(F)ccc(-c2ccn3nc(N)nc3c2)c1F (single isomer, unassigned) [Example 123, 5-(3-(2-amino-[1,2,4]triazolo[1,5-a]pyridin-7-yl)-2,6-difluorophenoxy)-3,3-difluoro-2-(3-fluorophenyl)pentan-2-ol] | 0.9 | 
11 | CC(O)(c1ccccc1F)C(F)(F)CCOc1c(F)ccc(-c2ccn3nc(N)nc3c2)c1F (single isomer, unassigned) [Example 124, 5-(3-(2-amino-[1,2,4]triazolo[1,5-a]pyridin-7-yl)-2,6-difluorophenoxy)-3,3-difluoro-2-(2-fluorophenyl)pentan-2-ol] | 160 | 
12 | CC(O)(c1ccccc1F)C(F)(F)CCOc1c(F)ccc(-c2ccn3nc(N)nc3c2)c1F (single isomer, unassigned) [Example 125, 5-(3-(2-amino-[1,2,4]triazolo[1,5-a]pyridin-7-yl)-2,6-difluorophenoxy)-3,3-difluoro-2-(2-fluorophenyl)pentan-2-ol] | 0.6 | 
13 | CC(CC(F)(F)C(C)(O)c1ccc(F)cc1)Oc1c(F)ccc(-c2ccn3nc(N)nc3c2)c1F (single isomer, unassigned) [Example 126, 5-(3-(2-amino-[1,2,4]triazolo[1,5-a]pyridin-7-yl)-2,6-difluorophenoxy)-3,3-difluoro-2-(4-fluorophenyl)hexan-2-ol] | 370 | 
14 | CC(CC(F)(F)C(C)(O)c1ccc(F)cc1)Oc1c(F)ccc(-c2ccn3nc(N)nc3c2)c1F (single isomer, unassigned) [Example 127, 5-(3-(2-amino-[1,2,4]triazolo[1,5-a]pyridin-7-yl)-2,6-difluorophenoxy)-3,3-difluoro-2-(4-fluorophenyl)hexan-2-ol] | 1.1 | 
15 | CC(CC(F)(F)C(C)(O)c1ccc(F)cc1)Oc1c(F)ccc(-c2ccn3nc(N)nc3c2)c1F (single isomer, unassigned) [Example 128, 5-(3-(2-amino-[1,2,4]triazolo[1,5-a]pyridin-7-yl)-2,6-difluorophenoxy)-3,3-difluoro-2-(4-fluorophenyl)hexan-2-ol] | 170 | 
16 | CC(CC(F)(F)C(C)(O)c1ccc(F)cc1)Oc1c(F)ccc(-c2ccn3nc(N)nc3c2)c1F (single isomer, unassigned) [Example 129, 5-(3-(2-amino-[1,2,4]triazolo[1,5-a]pyridin-7-yl)-2,6-difluorophenoxy)-3,3-difluoro-2-(4-fluorophenyl)hexan-2-ol] | 70 | 
17 | CC(C)(CC(F)(F)C(C)(O)c1ccc(F)cc1)Oc1c(F)ccc(-c2ccn3nc(N)nc3c2)c1F (single isomer, unassigned) [Example 130, 5-(3-(2-amino-[1,2,4]triazolo[1,5-a]pyridin-7-yl)-2,6-difluorophenoxy)-3,3-difluoro-2-(4-fluorophenyl)-5-methylhexan-2-ol] | 4200 | 
18 | CC(C)(CC(F)(F)C(C)(O)c1ccc(F)cc1)Oc1c(F)ccc(-c2ccn3nc(N)nc3c2)c1F (single isomer, unassigned) [Example 131, 5-(3-(2-amino-[1,2,4]triazolo[1,5-a]pyridin-7-yl)-2,6-difluorophenoxy)-3,3-difluoro-2-(4-fluorophenyl)-5-methylhexan-2-ol] | 3.4 | 
19 | Nc1nc2cc(-c3cccc(OCCC(F)(F)COc4cc(Cl)ccn4)c3F)ccn2n1 [Example 1, 7-(3-(4-((4-chloropyridin-2-yl)oxy)-3,3-difluorobutoxy)-2-fluorophenyl)-[1,2,4]triazolo[1,5-a]pyridin-2-amine] |  | IC50 ([3]; Homo sapiens): 140 nM
20 | Cc1ccc(-c2ccn3nc(N)nc3c2)c(F)c1C(=O)NCC(F)(F)C(O)c1ccc(F)cc1 (stereo not drawn) [Example 30 from WO2022/086828, reference compound] |  | efflux ratio at 2 h, 0.1 uM [1]: 43; efflux ratio at 2 h, 0.1 uM [2]: 35
21 | Nc1nc2cc(-c3cccc(OCCC(F)(F)Oc4ccc(F)cc4)c3F)ccn2n1 [Example 65, 7-(3-(3,3-difluoro-3-(4-fluorophenoxy)propoxy)-2-fluorophenyl)-[1,2,4]triazolo[1,5-a]pyridin-2-amine] |  | IC50 ([3]; Homo sapiens): 140 nM
22 | Nc1nc2cc(-c3cccc(OCCC(F)(F)Cc4ccccc4)c3F)ccn2n1 [Example 74, 7-(3-(3,3-difluoro-4-phenylbutoxy)-2-fluorophenyl)-[1,2,4]triazolo[1,5-a]pyridin-2-amine] |  | IC50 ([3]; Homo sapiens): 5 nM
